According to patent US20210052566A1, “METHODS FOR TREATING HEPATITIS B VIRUS (HBV) INFECTION” (INSERM (INSTITUT NATIONAL DE LA SANTÉ ET DE LA RECHERCHE …, priority 2018, published 2021):

Columns and labels:
[1] = tested on: HBV genotype C; test: De novo establishment of HBV infection/cccDNA in naive dHepaRG, genotype C (treatment before and during inoculation); type: cell-based, Hepatitis B virus
Description: FIG. 1. Experimental outlines. Treatment schemes: (a) Treatments in pre-infection: dHepaRG cells were treated for 24 h (at day −1) with 100 nM of PreS1 peptide (PreS1-pep) or 10 μM of 1C8, or untreated (NT). At day 0, cells were inoculated with HBV (MOI=250) or with HDV (MOI=25) in the presence of drugs for 24 h. For the tenofovir control (TDF at 10 μM), cells were treated at day 1 and 4 post-infection. Supernatant and cells were harvested at day 7 post-infection. (b) Treatments in post-infection: dHepaRG cells were inoculated with HBV (MOI=250) or with HDV (MOI=25). At days 4, 7 and 9 post infection, cells were treated with TDF 10 μM, lamivudine (3TC) at 10 μM, 1C8 10 μM or untreated (NT). […]
FIG. 8. […] B) HBs and HBe secreted antigens in supernatant were quantified by ELISA, whereas HBV DNA contained in virions was quantified by qPCR after viral nucleic acid extraction from supernatant. […] Statistics were done by two-tailed Mann-Whitney test, with following significativity: *P<0.05, **P<0.01, ***P<0.001, ****P<0.0001. nd=not determined […]
(§1) From cell culture supernatants, secreted HBe and HBs antigens were quantified by ELISA, using a chemiluminescence immunoassay kit (Autobio, China) following manufacturer's instructions. […]
A HBV standard was used for quantification of extracellular viral DNA and RNA. […] CccDNA was normalized to β-Globin quantification. […]

[2] = tested on: HBV genotype D; test: De novo establishment of HBV infection/cccDNA in naive dHepaRG, genotype D (treatment before and during inoculation); type: cell-based, Hepatitis B virus
Description: FIG. 1. Experimental outlines. Treatment schemes: (a) Treatments in pre-infection: dHepaRG cells were treated for 24 h (at day −1) with 100 nM of PreS1 peptide (PreS1-pep) or 10 μM of 1C8, or untreated (NT). At day 0, cells were inoculated with HBV (MOI=250) or with HDV (MOI=25) in the presence of drugs for 24 h. For the tenofovir control (TDF at 10 μM), cells were treated at day 1 and 4 post-infection. Supernatant and cells were harvested at day 7 post-infection. (b) Treatments in post-infection: dHepaRG cells were inoculated with HBV (MOI=250) or with HDV (MOI=25). At days 4, 7 and 9 post infection, cells were treated with TDF 10 μM, lamivudine (3TC) at 10 μM, 1C8 10 μM or untreated (NT). Supernatant and cells were harvested at day 11 postinfection.
FIG. 7. Effect of 1C8 on de novo establishment of ccDNA in dHepaRG (genotype D). […] B) HBs and HBe secreted antigens in supernatant were quantiUied by ELISA, whereas HBV DNA contained in virions was quantified by qPCR after viral nucleic acid extraction from supernatant. […] Statistics were done by two-tailed Mann-Whitney test, with following signiUicativity: *P<0.05, **P<0.01, ***P<0.001, ****P<0.0001. nd=not determined.
Human liver progenitor HepaRG cells were cultured in Williams medium (ThermoFisher) supplemented with 10% of FBS (Perbio), Penicillin/Streptomycin (500 U/mL), glutamine (2 mM), hydrocortisone Upjohn (2.5 mg/L; Serb laboratory), insulin (5 mg/L; Sigma Aldrich). […] The multiplicity of infection (MOI; expressed as virus genome equivalent/cell) is indicated in the figure legends, but was of 100 vge/cell if not precised.
as §1
A HBV standard was used for quantification of extracellular viral DNA and RNA. For cccDNA quantification total DNA was digested by T5 exonuclease (New England Biolabs) for 6 hours at 37° C. then submitted to qPCR using Taqman Fast Advanced Master Mix (Life Technologies). […]

[3] = target: SRSF10 (Homo sapiens, UniProt O75494); details: cited from earlier work
SRSF10, sequence (O75494 whole entry): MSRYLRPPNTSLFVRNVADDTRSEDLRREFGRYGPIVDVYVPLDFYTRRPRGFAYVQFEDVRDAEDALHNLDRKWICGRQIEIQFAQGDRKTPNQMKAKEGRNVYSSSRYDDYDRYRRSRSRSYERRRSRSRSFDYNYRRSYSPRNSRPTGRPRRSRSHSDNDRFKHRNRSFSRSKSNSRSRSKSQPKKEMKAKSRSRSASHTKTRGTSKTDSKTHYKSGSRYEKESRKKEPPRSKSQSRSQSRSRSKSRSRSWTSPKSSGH

[4] = target: SRSF1 (Homo sapiens, UniProt Q07955); details: cited from earlier work
SRSF1, sequence (Q07955 whole entry, species assumed): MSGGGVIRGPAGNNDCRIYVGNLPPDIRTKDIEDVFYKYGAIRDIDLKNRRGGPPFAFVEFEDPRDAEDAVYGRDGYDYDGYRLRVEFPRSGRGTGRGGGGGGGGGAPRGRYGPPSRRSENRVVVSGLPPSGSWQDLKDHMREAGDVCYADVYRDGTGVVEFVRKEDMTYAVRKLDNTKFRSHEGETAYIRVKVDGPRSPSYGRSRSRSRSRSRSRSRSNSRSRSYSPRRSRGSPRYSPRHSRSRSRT

[5] = dHepaRG treated before and during inoculation, 10 microM

In the case of `Cn1ccc(=O)c(C(=O)Nc2nsc3ccc([N+](=O)[O-])cc23)c1` [1C8, 4-pyridinonebenzisothiazole carboxamide], the inhibition at 10 µM ([1]; Hepatitis B virus, dHepaRG treated before and during HBV inoculation) is reported as 70%, the “other viral markers (intracellular RNAs, HBeAg, HBsAg), genotype C” value [1, 5] is reported as “also reduced” and the inhibition at 10 µM ([2]; Hepatitis B virus, dHepaRG treated before and during HBV inoculation, 10 microM) is reported as 50%. The “other viral markers (intracellular RNAs, HBeAg, HBsAg), genotype D” value [2, 5] was “also reduced”, the “inhibition of cccDNA establishment compared with controls (entry inhibitor, TDF)” value ([2]; dHepaRG treated before and during inoculation, 1C8 and TDF 10 microM, Entry Inh. 100 nM, stated for genotypes D and C together) was “lower than that obtained with an entry inhibitor, but higher than that obtained with a NUC” and the “SRSF10 phosphorylation at serine 133” value [3] was “inhibit SRSF10 phosphorylation at serine 133”. The “inhibition of SRSF1” value [4] was “does not inhibit”.
